In patent US9737517B2, “Pharmaceutical use of hexahydro-dibenzo[a,g]quinolizine compounds” (SHANGHAI INSTITUTE OF MATERIA MEDICA, CHINESE ACADEMY OF …, priority 2013, dated 2017):
Where “and” joins values, the source holds several entries; their conditions need not be identical. Equal entries are not always repeated. Where two headings read alike, the source gives them in different places.

Key:
α1A-AR = target: T1, α1A-AR (Homo sapiens, UniProt P35348); assay: Calcium mobilization (Fluo-4) antagonism of phenylephrine in HEK293 cells expressing α1A-AR/Gα16; format: cell-based; conditions: for IC50: HEK293 α1A-AR/Gα16, calcium mobilization, phenylephrine 30 nM; for α1B/α1A: ratio of cell IC50 values, calcium mobilization
T1 construct: expressed in transfected cells; host or cells: HEK293
T1 sequence (P35348 1-466): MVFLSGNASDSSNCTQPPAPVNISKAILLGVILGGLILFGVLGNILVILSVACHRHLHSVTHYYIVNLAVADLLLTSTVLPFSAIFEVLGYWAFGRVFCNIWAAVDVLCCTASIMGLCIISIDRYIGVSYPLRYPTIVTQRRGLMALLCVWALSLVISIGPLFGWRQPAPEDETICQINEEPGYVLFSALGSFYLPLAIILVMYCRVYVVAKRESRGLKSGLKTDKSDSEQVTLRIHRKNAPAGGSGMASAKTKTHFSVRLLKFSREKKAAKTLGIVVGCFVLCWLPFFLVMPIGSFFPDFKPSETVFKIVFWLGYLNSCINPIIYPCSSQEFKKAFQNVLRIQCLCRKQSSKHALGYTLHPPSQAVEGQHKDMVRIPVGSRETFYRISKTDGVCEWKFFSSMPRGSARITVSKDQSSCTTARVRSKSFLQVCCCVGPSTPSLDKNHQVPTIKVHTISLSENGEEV
Experimental: HEK293 cells stably expressing α1A-AR/Gα16, α1B-AR/Gα16, α1D-AR/Gα16 were seeded in a 96-well plate, and cultured for 24 hours. Then the medium was removed and 40 μL Hank's balanced salt solution (HBSS: containing 5.4 mM KCl, 0.3 mM Na2HPO4, 0.4 mM KH2PO4, 4.2 mM NaHCO3, 1.3 mM CaCl2, 0.5 mM MgCl2, 0.6 mM MgSO4, 137 mM NaCl, 5.6 mM D-glucose, and 250 μM sulfinpyrazone, pH 7.4) containing 2 μM Fluo-4 AM was added into each well, and incubated at 37° C. for 45 min. Dye was removed and 50 μL of HBSS containing either test compound or 1% DMSO (negative control) was added. After incubation at room temperature for 10 min, Flex Station 3 microplate reader was used to read the value. At specified time points, 25 μL of agonist (phenylephrine, final concentration 30 nM) was dispensed into the well automatically using the reader and fluorescence intensity change of dye caused by intracellular calcium concentration change was detected at an excitation wavelength of 485 nm and an emission wavelength of 525 nm.
After incubation with different drugs, the reaction rate of cells to 1-AR agonist phenylephrine was calculated as follows: Reaction rate %=(D−B)/(S−B)*100%;
The reaction rate of the same drug at different doses was tested using GraphPad Prism software by non-linear regression analysis, and the dose-response curve was obtained and IC50 values was measured. Data were obtained from three separate experiments, and each experiment included three duplicate wells.

[1] = Pharmacokinetics study in rats (gavage and intravenous); format: in vivo, SD rats; conditions: rat
Experimental: (§1) Gavage administration to rats. 3 healthy SD rats (male, weighed 200-220 g) were fasted for 12 hours before the administration but were allowed to drink water. Compound DC037009 was formulated with 10% DMSO/10% Tween 80/80% saline and was administered by 20 mg/kg dose and the dosing volume was 10 mL/kg.
as §1, with “Intravenous administration” for “Gavage administration”, “administered via the rat tail vein injection” for “administered”, “by 10” for “by 20”, “was 5” for “was 10”
Intravenous administration: 5 min, 0.25, 0.5, 1.0, 2.0, 3.0, 5.0, 7.0, 9.0 and 24 hrs after administration.
At the above time points, 0.3 mL blood obtained from post-eye venous plexus of rat was set into a heparinized tube, which was 11000 rpm centrifuged for 5 min, and the plasma was separated and frozen at −20° C. in a refrigerator.

[2] = In vitro metabolism in rat liver microsomes; format: in vitro ADME
Experimental: (§2) The total volume of each incubation system was 200 μL, and the medium was 100 mM phosphate buffer solution (PBS, pH7.4) comprising a final concentration of 3 μM DC037009 and 2 mM NADPH. A37° C. water bath was used for incubation. After 3 minutes of pre-incubation, various liver microsomes protein were added into the buffer-substrate-cofactors mixture to start reaction. The concentration of liver microsomal protein of various species was 1.0 mg/mL. After reacting 60 min, the reaction was terminated with isovolumetric ice-cold acetonitrile. The total volume of blank was 200 μL, and the medium was 100 mM phosphate buffer solution (PBS, pH 7.4), comprising a final concentration of 3 μM DC037009 and heat inactivated microsomal proteins. All incubation samples were double.
(§3) A 150 μL sample from each of double incubation samples was mixed. A 300 μL of acetonitrile was added, mixed by vortexing for 1 min, and centrifuged 5 min (11000 rpm). The supernatant was placed in a 10 mL tube, and dried in 40° C. with nitrogen stream. The residue was dissolved with 100 μL methanol/water (1:9, v/v). A 10 μL sample was taken for UPLC/Q-TOF MS analysis.

[3] = In vitro metabolism in mouse liver microsomes; format: in vitro ADME, mice
Experimental: as §2, §3

SD rats = assay: Acute toxicity experiment on SD rats by oral gavage; format: in vivo; conditions: single dose of 500 and 1000 mg/kg by oral gavage
Experimental: (§4) SD rats were administered compound DC037009 with single dose of 500 and 1000 mg/kg by oral gavage.

[4] = as above; format: in vivo; conditions: rat, in vivo, single dose, oral gavage, read-out: maximum tolerated dose (MTD)
Experimental: as §4

[5] = In vitro metabolism in monkey liver microsomes; format: in vitro ADME
Experimental: as §2, §3

[6] = In vitro metabolism in dog liver microsomes; format: in vitro ADME
Experimental: as §2, §3

[7] = male, SD, plasma, po, 20 mg/kg, gavage 20 mg/kg, individual animals 1-3
[8] = male, SD, plasma, po, 20 mg/kg, gavage 20 mg/kg, mean of 3
[9] = gavage 20 mg/kg, individual animals 1-3, 20 mg/kg
[10] = 3 μM DC037009, 1.0 mg/mL microsomal protein, NADPH, 60 min, UPLC/Q-TOF MS

COc1cc2c(cc1OCc1ccccc1)C[C@H]1c3cc4c(cc3CCN1C2)OCO4 [DC037016]
IC50 (α1A-AR): 34.8 nM | α1B/α1A (α1A-AR): 122

COc1cc2c(cc1OC)CN1CCc3cc4c(cc3[C@@H]1C2)OCO4 [DC037009, S-(−)-2,3-methylenedioxy-10,11-dimethoxy-5,8,13,13a-tetrahydro-6H-dibenzo[a,g]quinolizine]
bioavailability ([1]; male, SD, plasma, oral, gavage 20 mg/kg versus intravenous 10 mg/kg): 34.2% | clearance ([1]; male, SD, plasma, intravenous injection 10 mg/kg, read-out: plasma clearance rate CL (converted)): 39.7 mL/min/kg | Vd ([1]; male, SD, plasma, intravenous injection 10 mg/kg, read-out: volume distribution stead state Vss): 3.49 ± 0.24 L/kg | half-life ([1]; male, SD, plasma, iv, 10 mg/kg, intravenous injection 10 mg/kg): 5.44 ± 0.85 h | AUC0-t ([1]; male, SD, plasma, iv, 10 mg/kg, intravenous injection 10 mg/kg, read-out: AUC0-t): 4200 ± 141 ng·h/mL | AUC(0-inf) [1, 7]: 2630 ng·h/mL | half-life [1, 7]: 4.2 h | AUC0-t ([1]; male, SD, plasma, po, 20 mg/kg, gavage 20 mg/kg, individual animals 1-3, read-out: AUC0-t): 2570 ng·h/mL | Cmax ([1]; male, SD, plasma, po, 20 mg/kg, gavage 20 mg/kg, individual animals 1-3, read-out: Cmax): 289 ng/mL | MRT ([1]; male, SD, plasma, po, 20 mg/kg, gavage 20 mg/kg, individual animals 1-3, read-out: MRT): 6.45 h | Tmax ([1]; male, SD, plasma, po, 20 mg/kg, gavage 20 mg/kg, individual animals 1-3, read-out: Tmax): 0.5 h | AUC(0-inf) [1, 8]: 2890 ng·h/mL | half-life [1, 8]: 3.26 ± 0.82 h | AUC0-t ([1]; male, SD, plasma, po, 20 mg/kg, gavage 20 mg/kg, mean of 3, read-out: AUC0-t): 2870 ± 798 ng·h/mL | Cmax ([1]; male, SD, plasma, po, 20 mg/kg, gavage 20 mg/kg, mean of 3, read-out: Cmax): 453 ± 147 ng/mL | MRT ([1]; male, SD, plasma, po, 20 mg/kg, gavage 20 mg/kg, mean of 3, read-out: MRT): 5.04 h | Tmax ([1]; male, SD, plasma, po, 20 mg/kg, gavage 20 mg/kg, mean of 3, read-out: Tmax): 0.67 ± 0.29 h | AUC0-t [1, 9]: 2260 ng·h/mL and 3771 ng·h/mL | AUC0-∞ [1, 9]: 2265 ng·h/mL and 3779 ng·h/mL | Cmax [1, 9]: 494 ng/mL and 575 ng/mL | MRT [1, 9]: 4.00 h and 4.67 h | Tmax [1, 9]: 1.00 h | t1/2 [1, 9]: 2.89 h and 2.70 h | AUC0-t ([1]; gavage 20 mg/kg, mean of 3, 20 mg/kg): 2260 ng·h/mL | IC50 (α1A-AR): 29.8 nM | α1B/α1A (α1A-AR): 175 | Mass area, rat [2, 10]: 115.4 | kinds of metabolites detected in rat liver microsome ([2]; 60 min incubation): eight | Mass area, mice [3, 10]: 6.3 | kinds of metabolites detected in mouse liver microsome ([3]; 60 min incubation): eight | metabolic stability in mouse liver microsome ([3]; 60 min incubation): unstable | changes after anatomy (SD rats): no obvious drug-related changes | MTD [4]: 1000 mg/kg | Mass area, monkey [5, 10]: 1.6 | kinds of metabolites detected in monkey liver microsome ([5]; 60 min incubation): seven | metabolic stability in monkey liver microsome ([5]; 60 min incubation): unstable | Mass area, dog [6, 10]: 171.3 | kinds of metabolites detected in dog liver microsome ([6]; 60 min incubation): six | metabolic stability in dog liver microsome ([6]; 60 min incubation): in second place
